Data as given in patent US11618743B2, “Herbicidal compounds” (SYNGENTA PARTICIPATIONS AG, priority 2017, dated 2023).

Assays:
Experiment in all cases: Post-emergence efficacy, Method A
Format in all cases: in vivo
Conditions in all cases: Application rate 500 g/Ha; Method A; evaluated after 13 days
[1] = test system: Chenopodium album (CHEAL)
Procedure: (§1) Seeds of a variety of test species were sown in standard soil in pots. After cultivation for 14 days (post-emergence) under controlled conditions in a glasshouse (at 24/16° C., day/night; 14 hours light; 65% humidity), the plants were sprayed with an aqueous spray solution derived from the dissolution of the technical active ingredient formula (I) in a small amount of acetone and a special solvent and emulsifier mixture referred to as IF50 (11.12% Emulsogen EL360 TM+44.44% N-methylpyrrolidone+44.44% Dowanol DPM glycol ether), to create a 50 g/l solution which was then diluted to required concentration using 0.25% or 1% Empicol ESC70 (Sodium lauryl ether sulphate)+1% ammonium sulphate as diluent.
(§2) The test plants were then grown in a glasshouse under controlled conditions (at 24/16° C., day/night; 14 hours light; 65% humidity) and watered twice daily. After 13 days the test was evaluated (100=total damage to plant; 0=no damage to plant).
(§3) Ipomoea hederacea (IPOHE), Euphorbia heterophylla (EPHHL), Chenopodium album (CHEAL), Amaranthus palmeri (AMAPA), Lolium perenne (LOLPE), Digitaria sanguinalis (DIGSA), Eleusine indica (ELEIN), Echinochloa crus-galli (ECHCG), Setaria faberi (SETFA)

[2] = test system: Amaranthus palmeri (AMAPA)
Procedure: as §1, §2, §3

[3] = test system: Digitaria sanguinalis (DIGSA)
Procedure: as §1, §2, §3

[4] = test system: Eleusine indica (ELEIN)
Procedure: as §1, §2, §3

[5] = test system: Euphorbia heterophylla (EPHHL)
Procedure: as §1, §2, §3

[6] = test system: Echinochloa crus-galli (ECHCG)
Procedure: as §1, §2, §3

[7] = test system: Setaria faberi (SETFA)
Procedure: as §1, §2, §3

Structure (SMILES)	Control of weed species CHEAL after post-emergence application (100=total damage to plant; 0=no damage to plant) [1]	Control of weed species AMAPA after post-emergence application (100=total damage to plant; 0=no damage to plant) [2]	Control of weed species DIGSA after post-emergence application (100=total damage to plant; 0=no damage to plant) [3]	Control of weed species ELEIN after post-emergence application (100=total damage to plant; 0=no damage to plant) [4]	Control of weed species EPHHL after post-emergence application (100=total damage to plant; 0=no damage to plant) [5]	Control of weed species ECHCG after post-emergence application (100=total damage to plant; 0=no damage to plant) [6]	Control of weed species SETFA after post-emergence application (100=total damage to plant; 0=no damage to plant) [7]
O=C([O-])C(F)(F)F.O=S(=O)(O)CCC[n+]1ccc(-c2cnccn2)cn1 [Compound A10]	100	100	60	50	100	30	60
CC(CC(=O)O)[n+]1ccc(-c2ncccn2)cn1.O=C([O-])C(F)(F)F (stereo not shown) [Compound A40, 3-(4-pyrimidin-2-ylpyridazin-1-ium-1-yl)butanoic acid 2,2,2-trifluoroacetate]	70	90	90	90	90	90	100
COC(=O)CC[n+]1ccc(-c2ncccn2)cn1.O=C([O-])C(F)(F)F [Compound A54, methyl 3-(4-pyrimidin-2-ylpyridazin-1-ium-1-yl)propanoate 2,2,2-trifluoroacetate]	90	90	100	100	70	90	100
Cc1nccc(-c2cc[n+](CCC(=O)O)nc2)n1.O=C([O-])C(F)(F)F [Compound A55]	80		100	100	70	90	100
CC(C)OC(=O)CC[n+]1ccc(-c2ncccn2)cn1.O=C([O-])C(F)(F)F [Compound A81, isopropyl 3-(4-pyrimidin-2-ylpyridazin-1-ium-1-yl)propanoate 2,2,2-trifluoroacetate]	90	100	100	80	100	90	90
CCOC(=O)CC[n+]1ccc(-c2ncccn2)cn1.O=C([O-])C(F)(F)F [Compound A82]	80	70	30	60	40	30	60
Cc1cncc(-c2cc[n+](CCC(=O)O)nc2)n1.O=C([O-])C(F)(F)F [Compound A85]	90	90	90	90	100	70	90
O=C(O)CC[n+]1ccc(-c2ccnc(O)n2)cn1.O=C([O-])C(F)(F)F [Compound A86]	40	30	30	10	50	20	40
